Assay results reported in patent US20250376481A1, “POLYCYCLIC CARBAMOYL PYRIDONE DERIVATIVE, PREPARATION METHOD THEREFOR AND PHARMACEUTICAL COMPOSITION THEREOF” (NANJING AIDEA PHARMACEUTICAL TECHNOLOGY CO., LTD., priority 2021, published 2025).

Assay: PK test of compounds (mouse)
Type: in vivo, ICR mice
Procedure: The mice were not fed until 5 pm on the day before administration, and fasted overnight with water. The mice in Group IV were administered with 2 mg/kg, while those in Group PO were administered with 10 mg/kg. Feeding was resumed 2 hours after administration. For mice administered by gavage, 20 μL blood was collected from the saphenous vein in calf before administration and 0.25, 0.5, 1, 2, 4, 8, and 24 hours after administration, respectively, and placed in EDTA-K2 anticoagulant blood collection tubes, and then the blood would be placed on ice until centrifuged to obtain plasma samples. The plasma samples were centrifuged at 4° C. (3500 rpm, 10 min), and after separation, the samples were transferred to EP tubes and stored at −80° C. for detection. For mice admistrated by intravenous injection, 20 μL blood was collected from the saphenous vein in calf before administration and 0.0833, 0.25, 0.5, 1, 2, 4, 8 and 24 hours after administration, respectively, and placed in EDTA-K2 anticoagulant blood collection tubes, and then the blood would be placed on ice until centrifuged to obtain a plasma sample. The plasma samples were centrifuged at 4° C. (3500 rpm, 10 min), and after separation, the samples were transferred to EP tubes and stored at −80° C. for detection. The level of tested compounds in blood plasma of mice, who had orally administrated with different concentrations of drugs were determinated: 10 μL mouse blood at each time point after administration was taken, 100 μL methanol containing an internal standard (100 ng/mL) was added, vortex mixed for 1 minute, centrifuged at 4° C. (12000 rmp, 5 minutes), and 1 μL supernatant was taken from the plasma samples for LC-MS/MS analysis.

For C[C@H]1N2C(=O)c3c(O)c(=O)c(C(=O)NCc4ccc(F)cc4F)cn3C[C@@H]2OCC12CC2 [Compound 1], the “bioavailability (in words)” value (PK test in mice) was “good bioavailability”, the half-life (male, mouse, plasma, ICR mice, PO 10 mg/kg) was 4.37 ± 0.47 h and the bioavailability (male, mouse, plasma, ICR mice, PO 10 mg/kg (IV 2 mg/kg)) was 57%.
